Measurements published in patent publication US8058283B2, “7H-pyrido[3,4-D]pyrimidin-8-ones, their manufacture and use as protein kinase inhibitors” (Hoffmann-La Roche Inc., priority 2006, dated 2011).

Experiments:
Type in all cases: biochemical
[1] = molecular target: human recombinant PDGFR beta (Homo sapiens, UniProt P09619); assay: IC50 determination for inhibitors of PDGFR kinase (IMAP fluorescence polarization); settings: 48 uM ATP, room temperature, 60 minutes; read-out: IC50 PDGFR kinase inhibition
Chain of human recombinant PDGFR beta (P09619 33-1106): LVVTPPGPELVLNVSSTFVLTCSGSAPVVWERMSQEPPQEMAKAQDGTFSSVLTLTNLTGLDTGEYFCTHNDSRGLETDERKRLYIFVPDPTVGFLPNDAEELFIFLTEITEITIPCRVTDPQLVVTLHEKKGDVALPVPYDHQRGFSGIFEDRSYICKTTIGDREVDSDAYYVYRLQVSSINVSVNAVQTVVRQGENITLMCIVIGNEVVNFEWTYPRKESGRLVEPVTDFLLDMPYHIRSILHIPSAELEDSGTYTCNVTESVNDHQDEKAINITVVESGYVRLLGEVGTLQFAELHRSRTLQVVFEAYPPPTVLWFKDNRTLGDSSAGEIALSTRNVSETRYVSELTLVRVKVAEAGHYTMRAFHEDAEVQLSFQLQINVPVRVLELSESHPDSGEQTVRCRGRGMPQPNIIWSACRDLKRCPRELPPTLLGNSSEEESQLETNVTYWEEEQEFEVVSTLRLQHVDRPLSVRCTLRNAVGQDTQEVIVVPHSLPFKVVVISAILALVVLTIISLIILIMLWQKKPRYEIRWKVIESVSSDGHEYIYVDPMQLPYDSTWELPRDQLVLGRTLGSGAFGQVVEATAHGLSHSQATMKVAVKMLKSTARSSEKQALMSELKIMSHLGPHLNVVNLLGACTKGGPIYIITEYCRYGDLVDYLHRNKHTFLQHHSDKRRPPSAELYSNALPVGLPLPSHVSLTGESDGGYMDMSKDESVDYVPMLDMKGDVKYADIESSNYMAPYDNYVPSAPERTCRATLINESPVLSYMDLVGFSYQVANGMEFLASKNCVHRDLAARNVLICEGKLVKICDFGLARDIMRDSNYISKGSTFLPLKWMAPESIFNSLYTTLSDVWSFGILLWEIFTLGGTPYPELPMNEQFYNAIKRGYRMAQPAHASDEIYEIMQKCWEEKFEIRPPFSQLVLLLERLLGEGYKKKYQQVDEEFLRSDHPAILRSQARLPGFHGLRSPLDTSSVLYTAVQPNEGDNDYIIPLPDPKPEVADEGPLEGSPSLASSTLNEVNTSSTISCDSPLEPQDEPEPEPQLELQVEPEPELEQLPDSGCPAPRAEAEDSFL
Method: IC50 Determination for Inhibitors of PDGFR Kinase Assay Principle
PDGFR assay was carried out with human recombinant PDGFR beta, fluorescein labeled peptide substrate (with a peptide sequence of ALTSNQEYLDLSMPL) and test compounds (in serial dilution) using 384-well plates. Kinase reaction was performed in MOPS buffer (20 mM MOPS pH 7.1, 5 mM Sodium Acetate, 6.25 mM MgCl2, 0.5 mM EDTA, 1 mM DTT, 0.04 mM NaVO4, 0.02% BSA), in the presence of 48 uM ATP, incubated at room temperature for 60 minutes. Reaction was stopped by IMAP Bead Binding System (Molecular Devices). After incubation at room temperature for 2 hours, the reaction product was analyzed on LJL Acquest.
(§1) FP reading (in mP) was used to calculate reaction rate. The assay was semi-automated by Tomtec Quadra workstation.

[2] = molecular target: T1, mouse Abl (27-end) fusion protein (Mus musculus, UniProt P00520); assay: IC50 determination for inhibitors of Abl kinase (IMAP fluorescence polarization); settings: 22.8 uM ATP, 37° C., 60 minutes; read-out: IC50 Abl kinase inhibition
T1 construct: fusion protein corresponding to mouse Abl (27-end)
T1 sequence (P00520 27-1123 limits assumed): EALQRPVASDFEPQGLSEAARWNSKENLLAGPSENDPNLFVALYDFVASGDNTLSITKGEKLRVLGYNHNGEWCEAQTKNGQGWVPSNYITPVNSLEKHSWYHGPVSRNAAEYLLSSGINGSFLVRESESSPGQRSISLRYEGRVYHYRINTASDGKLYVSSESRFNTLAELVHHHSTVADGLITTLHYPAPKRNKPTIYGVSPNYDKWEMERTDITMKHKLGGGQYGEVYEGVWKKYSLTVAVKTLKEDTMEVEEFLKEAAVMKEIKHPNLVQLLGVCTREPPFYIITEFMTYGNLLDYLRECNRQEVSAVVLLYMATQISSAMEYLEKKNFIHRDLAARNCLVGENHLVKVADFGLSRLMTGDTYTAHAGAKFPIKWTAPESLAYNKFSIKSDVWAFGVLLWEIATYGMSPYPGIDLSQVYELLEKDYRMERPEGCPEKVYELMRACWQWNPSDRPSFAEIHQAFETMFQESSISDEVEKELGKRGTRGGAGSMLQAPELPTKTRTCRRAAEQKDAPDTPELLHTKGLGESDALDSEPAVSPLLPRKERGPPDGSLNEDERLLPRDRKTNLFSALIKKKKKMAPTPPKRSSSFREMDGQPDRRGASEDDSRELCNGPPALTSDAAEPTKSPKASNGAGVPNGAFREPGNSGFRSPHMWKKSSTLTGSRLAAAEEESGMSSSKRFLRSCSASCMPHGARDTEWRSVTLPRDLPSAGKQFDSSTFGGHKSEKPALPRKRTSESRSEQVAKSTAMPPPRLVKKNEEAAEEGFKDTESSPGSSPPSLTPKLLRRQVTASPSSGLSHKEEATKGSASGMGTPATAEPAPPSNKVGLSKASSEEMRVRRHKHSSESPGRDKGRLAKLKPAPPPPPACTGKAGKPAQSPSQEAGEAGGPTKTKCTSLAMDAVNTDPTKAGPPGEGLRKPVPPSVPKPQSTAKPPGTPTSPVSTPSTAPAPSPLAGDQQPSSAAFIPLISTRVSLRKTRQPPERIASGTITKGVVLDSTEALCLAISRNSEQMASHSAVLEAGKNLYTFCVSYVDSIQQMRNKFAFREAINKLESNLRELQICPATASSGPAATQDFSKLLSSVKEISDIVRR
Method: IC50 Determination for Inhibitors of Abl Kinase
Abl assay was done using fusion protein corresponding to mouse Abl (27-end) fluorescein labeled peptide substrate (with a sequence of EAIYAAPFAKKK) and quantified by Molecular Devices' IMAP fluorescence polarization technology. Compounds were tested in serially diluted concentrations in 384 well plates. Kinase reaction was performed in KAB Buffer (10 mM HEPES, pH 7, 50 mM NaCl, 5 mM MgCl2, 1 mM DTT, 0.1 mM NaVO4, 0.02% BSA), in the presence of 22.8 uM ATP, incubated at 37° C. for 60 minutes. Reaction was stopped by IMAP bead mix (at 1:400 diluted). After incubation at room temperature for 3 hours, the reaction product was analyzed on LJL Acquest (excitation 485 nm and Emission 530 nm).
as §1

Src (p60c-src) = molecular target: T2, Src (p60c-src) (Homo sapiens, UniProt P12931); assay: Src-Inhibitor-Assay (time-resolved fluorescence); settings: ATP 5 μM; enzyme pre-incubated 15 min at 15° C. with inhibitor
T2 construct: purchased UBI, Upstate Biotech, Inc
T2 sequence (P12931 whole entry): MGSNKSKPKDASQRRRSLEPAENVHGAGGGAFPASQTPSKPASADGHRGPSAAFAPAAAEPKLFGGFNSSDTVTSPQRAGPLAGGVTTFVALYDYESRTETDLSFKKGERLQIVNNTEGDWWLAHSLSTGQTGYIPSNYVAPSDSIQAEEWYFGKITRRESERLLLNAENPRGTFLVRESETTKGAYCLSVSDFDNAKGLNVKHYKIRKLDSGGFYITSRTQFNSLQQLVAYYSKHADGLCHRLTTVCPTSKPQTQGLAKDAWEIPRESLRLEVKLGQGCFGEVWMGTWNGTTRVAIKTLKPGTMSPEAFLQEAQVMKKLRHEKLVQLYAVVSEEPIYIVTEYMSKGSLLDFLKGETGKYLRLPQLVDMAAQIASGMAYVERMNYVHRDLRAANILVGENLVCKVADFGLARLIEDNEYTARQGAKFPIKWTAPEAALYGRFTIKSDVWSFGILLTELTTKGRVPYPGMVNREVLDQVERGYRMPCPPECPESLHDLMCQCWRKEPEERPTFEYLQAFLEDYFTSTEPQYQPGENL
Method: Src-Inhibitor-Assay Parameters:
• ATP 5 μM • Peptide (Ro+Ja133-Ro): 10 μM • Ja133-Ro 196 nM • Ro 9.8 μM • PT66 230 ng/ml • Assay buffer: 4 mM MgCl2 • 2 mM TCEP • 50 mM HEPES • 0.1% Tween 20 • pH 7.3 • Enzyme: 2.5 U/ml • Inhibitor: max. 25 μM • min. 0.42 nM Material: • Eu-labelled phosphotyrosine antibody: —for Lck Cisbio Mab PT66-K, • for Src EG&G Wallac PT66 Eu-W1024 (all commercially available). • Peptides: Ro: NH2-A-E-E-E-I-Y-G-E-F-E-A-K-K-K-K-CONH2, and • Ja133-Ro: Ja133-G-Aminocaprylic acid-A-E-E-E-I-Y-G-E-F-E-A-K-K-K-K-CONH2, wherein Ja133 is LightCycler-Red 640-N-hydroxy succinimide ester; • whereby both peptides were synthesized by an optimized solid phase peptide synthesis protocol (Merrifield, Fed. Proc. Fed. Amer. Soc. Exp. Biol. 21 (1962) 412) on a Zinsser SMP350 peptide synthesizer. Shortly, the peptide was assembled on 160 mg (22.8 μmol scale) of a Rink-Linker modified polystyrene solid phase by repeatedly conjugating an twenty fold excess of amino acids each protected by temporary piperidine labile Fmoc- and permanent acid labile tert-Bu-, BOC- and O-tert-Bu-groups depending on the side chain function. The substrate sequence AEEEIYGEFEAKKKK was N-terminal additionally mounted with the spacer amino acids Aminocaprylic acid and Glycin. After cleavage of the N-terminal temporary protecting group the still attached and protected peptide was labeled with a 1.5 fold amount of LightCycler-Red 640-N-hydroxy succinimide ester (purchased from Roche Diagnostics GmbH) and triethylamine. After 3 hrs. the resin was washed with Dimethylformamide and Isopropanol until the eluates of the blue resin got colourless. […] The substrate was finally isolated by a preparative reverse phase HPLC purification. The purification yielded 12.2 mg RP-HPLC single peak pure blue material (lyophilisate). The identity was proven by MALDI mass spectroscopy [2720.0]. • Enzymes: Upstate Lck (p56^lck, active), Upstate Src (p60^c-src, partially purified) were purchased from UBI, Upstate Biotech, Inc. Time-resolved Fluorescence Assay: Reader: Perkin Elmer, Wallac Viktor 1420-040 multilabel counter; Liquid handling system: Beckman Coulter, Biomek 2000.
ATP, Tween™ 20, 4-(2-hydroxyethyl)-1-piperazineethanesulfonic acid (HEPES) were purchased from Roche Molecular Biochemicals, MgCl2 and MnCl2 were purchased from Merck Eurolab, Tris(2-carboxyethyl)phosphine hydrochloride (TCEP) was purchased from Pierce, 384 Well low volume fluorescence plates was purchased from Falcon.
At first the enzyme is pre-incubated for 15 min. at 15° C. in aqueous solution with corresponding amounts of inhibitors according to this invention. Then the phosphorylation reaction is started by adding a reaction mixture, containing ATP, Peptide and PT66, and subsequent shaking. The proceeding of this reaction is immediately monitored using time resolved fluorescence spectroscopy in a suitable well plate reader.
The IC50-values can be obtained from the reaction rates by using a non-linear curve fit (XLfit software (ID Business Solution Ltd., Guilford, Surrey, UK)).

SMILES	IC50 [1]	IC50 [2]	IC50 (Src (p60c-src))
COc1cccc(Cn2c(-c3ccccc3C)cc3cnc(Nc4ccc(N5CCN(C)CC5)cc4)nc3c2=O)c1 [Example 20, 7-(3-Methoxy-benzyl)-2-[4-(4-methyl-piperazin-1-yl)-phenylamino]-6-o-tolyl-7H-pyrido[3,4-d]pyrimidin-8-one]	500 to 15000 nM	1 to 500 nM	1 to 500 nM
Cc1ccccc1-c1cc2cnc(NC3CCOCC3)nc2c(=O)n1C [Example 12, 7-Methyl-2-(tetrahydro-pyran-4-ylamino)-6-o-tolyl-7H-pyrido[3,4-d]pyrimidin-8-one]	–	500 to 15000 nM	687 nM
Cc1ccccc1-c1cc2cnc(Nc3ccc(N4CCN(C)CC4)cc3)nc2c(=O)n1C [Example 3, 7-Methyl-2-[4-(4-methyl-piperazin-1-yl)-phenylamino]-6-o-tolyl-7H-pyrido[3,4-d]pyrimidin-8-one]	94 nM	1 to 500 nM	1 to 500 nM
Cc1cc(Cn2c(-c3ccccc3Cl)cc3cnc(Nc4ccc(N5CCN(C)CC5)cc4)nc3c2=O)nn1C [Example 30, 6-(2-Chloro-phenyl)-7-(1,5-dimethyl-1H-pyrazol-3-ylmethyl)-2-[4-(4-methyl-piperazin-1-yl)-phenylamino]-7H-pyrido[3,4-d]pyrimidin-8-one]	500 to 15000 nM	1 to 500 nM	1 to 500 nM
Cc1ccccc1-c1cc2cnc(Nc3ccc(S(=O)(=O)NCCO)cc3)nc2c(=O)n1CC(N)=O [Example 5, 2-{2-[4-(2-Hydroxy-ethylsulfamoyl)-phenylamino]-8-oxo-6-o-tolyl-8H-pyrido[3,4-d]pyrimidin-7-yl}-acetamide]	–	77 nM	1 to 500 nM
CCN(CC)CCOc1ccc(Nc2ncc3cc(-c4ccccc4C)n(Cc4cccc(OC)c4)c(=O)c3n2)cc1 [Example 22, 2-[4-(2-Diethylamino-ethoxy)-phenylamino]-7-(3-methoxy-benzyl)-6-o-tolyl-7H-pyrido[3,4-d]pyrimidin-8-one]	–	1 to 500 nM	–
Cc1ccccc1-c1cc2cnc(Nc3ccc(S(=O)(=O)NCCO)cc3)nc2c(=O)n1C [Example 6, N-(2-Hydroxy-ethyl)-4-(7-methyl-8-oxo-6-o-tolyl-7,8-dihydro-pyrido[3,4-d]pyrimidin-2-ylamino)-benzenesulfonamide]	1 to 500 nM	1 to 500 nM	1 to 500 nM
COc1cccc(Cn2c(-c3ccccc3C)cc3cnc(Nc4ccc(S(=O)(=O)NCCO)cc4)nc3c2=O)c1 [Example 21, N-(2-Hydroxy-ethyl)-4-[7-(3-methoxy-benzyl)-8-oxo-6-o-tolyl-7,8-dihydro-pyrido[3,4-d]pyrimidin-2-ylamino]-benzenesulfonamide]	–	1 to 500 nM	1 to 500 nM
CCN(CC)CCOc1ccc(Nc2ncc3cc(-c4ccccc4Cl)n(Cc4cc(C)n(C)n4)c(=O)c3n2)cc1 [Example 31, 6-(2-Chloro-phenyl)-2-[4-(2-diethylamino-ethoxy)-phenylamino]-7-(1,5-dimethyl-1H-pyrazol-3-ylmethyl)-7H-pyrido[3,4-d]pyrimidin-8-one]	–	1 to 500 nM	1 to 500 nM
COc1cccc(Cn2c(-c3ccccc3C)cc3cnc(Nc4cccc([S+](C)[O-])c4)nc3c2=O)c1 (stereo not shown) [Example 23, 2-(3-Methanesulfinyl-phenylamino)-7-(3-methoxy-benzyl)-6-o-tolyl-7H-pyrido[3,4-d]pyrimidin-8-one]	–	1 to 500 nM	1 to 500 nM
Cc1ccccc1-c1cc2cnc(Nc3ccc(N4CCOCC4)cc3)nc2c(=O)n1C [Example 1, 7-Methyl-2-(4-morpholin-4-yl-phenylamino)-6-o-tolyl-7H-pyrido[3,4-d]pyrimidin-8-one]	1 to 500 nM	1 to 500 nM	2.9 nM
Cc1ccccc1-c1cc2cnc(Nc3cccc([S+](C)[O-])c3)nc2c(=O)n1C (stereo not shown) [Example 10, 2-(3-Methanesulfinyl-phenylamino)-7-methyl-6-o-tolyl-7H-pyrido[3,4-d]pyrimidin-8-one]	417 nM	1 to 500 nM	1 to 500 nM
Cc1cc(Cn2c(-c3ccccc3Cl)cc3cnc(Nc4cccc([S+](C)[O-])c4)nc3c2=O)nn1C (stereo not shown) [Example 33, 6-(2-Chloro-phenyl)-7-(1,5-dimethyl-1H-pyrazol-3-ylmethyl)-2-(3-methanesulfinyl-phenylamino)-7H-pyrido[3,4-d]pyrimidin-8-one]	–	1 to 500 nM	1 to 500 nM
COc1cccc(Cn2c(-c3ccccc3Cl)cc3cnc(Nc4ccc(S(=O)(=O)NCCO)cc4)nc3c2=O)c1 [Example 37, 4-[6-(2-Chloro-phenyl)-7-(3-methoxy-benzyl)-8-oxo-7,8-dihydro-pyrido[3,4-d]pyrimidin-2-ylamino]-N-(2-hydroxy-ethyl)-benzenesulfonamide]	–	1 to 500 nM	1 to 500 nM
Cc1ccccc1-c1cc2cnc(NC(CO)CO)nc2c(=O)n1C [Example 4, 2-(2-Hydroxy-1-hydroxymethyl-ethylamino)-7-methyl-6-o-tolyl-7H-pyrido[3,4-d]pyrimidin-8-one]	–	500 to 15000 nM	500 to 1500 nM
CCN(CC)CCOc1ccc(Nc2ncc3cc(-c4ccccc4C)n(C)c(=O)c3n2)cc1 [Example 7, 2-[4-(2-Diethylamino-ethoxy)-phenylamino]-7-methyl-6-o-tolyl-7H-pyrido[3,4-d]pyrimidin-8-one]	1 to 500 nM	1 to 500 nM	1 to 500 nM
Cc1ccccc1-c1cc2cnc(Nc3cccc([S+](C)[O-])c3)nc2c(=O)n1CC(N)=O (stereo not shown) [Example 8, 2-[2-(3-Methanesulfinyl-phenylamino)-8-oxo-6-o-tolyl-8H-pyrido[3,4-d]pyrimidin-7-yl]-acetamide]	–	214 nM	1 to 500 nM
